# From paper PMC12301332, “Biased antagonism of a series of bicyclic CXCR2 intracellular allosteric modulators” (Frontiers in Pharmacology, 2025)
# T1: CXCR2 (Homo sapiens, UniProt P25025)
# T1 construct: expressed in transfected cells
# T1 sequence (P25025 1-360): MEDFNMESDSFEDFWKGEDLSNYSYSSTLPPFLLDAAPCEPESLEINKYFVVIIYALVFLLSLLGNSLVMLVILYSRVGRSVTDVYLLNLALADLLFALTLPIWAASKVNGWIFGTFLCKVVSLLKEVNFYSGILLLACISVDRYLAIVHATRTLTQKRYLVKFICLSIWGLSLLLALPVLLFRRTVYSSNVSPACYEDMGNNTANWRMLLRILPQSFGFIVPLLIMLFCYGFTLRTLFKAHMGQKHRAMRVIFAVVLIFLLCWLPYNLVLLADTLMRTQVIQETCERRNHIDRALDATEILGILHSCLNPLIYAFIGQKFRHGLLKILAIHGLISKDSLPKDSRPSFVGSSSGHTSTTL
# How the values were obtained:
# [1] = target: T1, CXCR2; design: method as in Boon et al., 2024; settings: agonist concentration used in NanoBRET assays; ref Boon et al., 2024; cited from earlier work
# [2] = target: T1, CXCR2; design: method as in Boon et al., 2024; settings: agonist concentration used in NanoBRET assays; ref Boon et al., 2024; cited from earlier work; remark: listed apart in the source
# [3] = target: T1, CXCR2; assay: NanoBRET-based G protein activation inhibition assay (REGA-SIGN Gαi1 dissociation) in HEK293A.CXCR2 cells; format: cell-based; settings: normalized to Imax of navarixin = 100%, n = 3
# Procedure: Cells were trypsinized and resuspended at 3 × 10^5 cell/mL in the growth medium, whereafter they were incubated for 2 hours at RT. Cells were transfected in suspension using FuGENE® HD Transfection Reagent at a 3:1 reagent to DNA ratio in Opti-MEMTM I Reduced-Serum Medium, with the final DNA concentration of 1 μg/μL. The transfection mixture was incubated for 10 min at RT before adding it to the cell suspension. Transfected cells were seeded at 3.0 × 10^4 cells/well in a white, clear, flat-bottom 96-well plate coated with 100 μg/mL poly-D-lysin ([…], Sigma Aldrich) and incubated for 48 h at 37°C and 5% CO2. […] (2023)]. Following the 48-h incubation period, cells were washed with the assay buffer. Compounds were serially diluted in 1:500 Nano-Glo® Vivazine^TM working solution (#N2581, Promega), and 90 μL of compound/Vivazine mix was added, followed by incubation for 45 min at 37°C and 5% CO2. Plates were transferred to the FLIPR Penta system (Molecular Devices) at 37°C, and all steps onward are automated and performed by the FLIPR Penta system. After a 10-min equilibration period, the baseline BRET signal was determined by five consecutive reads followed by automatic administration of 10 μL of 10× ligand (Table 1) to the cell plate. Changes in the BRET signal was measured for 10 min, with each read spaced by 2.5 s. […] BRET ratios were extracted from ScreenWorks software (Molecular Devices) and represent the ratio between the acceptor emission of […]2 or mNG (G protein or β-arrestin recruitment, respectively) and NLuc donor emission. The basal BRET ratio was defined as the average BRET ratio of the five consecutive readings preceding ligand addition. Changes in BRET values post ligand administration (ΔBRET) were calculated for each well as a percentage difference to the previously defined basal BRET ratio. Average ΔBRET values were baseline corrected by subtracting the average negative control BRET ratio (unstimulated condition). […] AUCs were normalized to the positive control (stimulated condition); whereafter, dose-response curves were fitted to log (inhibitor) vs response (three parameters) in GraphPad 10.2.0 (GraphPad Software). […] Calculation 1: calculation of the BRET signal. • 1. […] NC correctedΔBRET=Δ[…]. • 4. a. Neg AUC of NC correctedΔBRET=Gα activation read out. b. Pos AUC of NC correctedΔBRET=β-arrestin recruitment.
# [4] = target: T1, CXCR2; assay: NanoBRET β-arrestin1 recruitment inhibition assay (NanoLux) in HEK293A cells; format: cell-based; settings: normalized to Imax of navarixin = 100%, n = 3
# Procedure: Cells were trypsinized and resuspended at 3 × 10^5 cell/mL in the growth medium, whereafter they were incubated for 2 hours at RT. Cells were transfected in suspension using FuGENE® HD Transfection Reagent at a 3:1 reagent to DNA ratio in Opti-MEMTM I Reduced-Serum Medium, with the final DNA concentration of 1 μg/μL. The transfection mixture was incubated for 10 min at RT before adding it to the cell suspension. Transfected cells were seeded at 3.0 × 10^4 cells/well in a white, clear, flat-bottom 96-well plate coated with 100 μg/mL poly-D-lysin ([…], Sigma Aldrich) and incubated for 48 h at 37°C and 5% CO2. HEK293A cells were transiently co-transfected with plasmids encoding β-arrestin1 protein tagged with NLuc (donor) and CXCR2 protein tagged with mNeonGreen (mNG) acceptor in a 1:10 donor to acceptor ratio, as described previously ([Luís et al., 2022]). All subsequent steps are identical to those in “NanoBRET-based G protein activation inhibition assay,” which are described above. Measurements were acquired using a 440- to 480-nm donor emission filter (#0200-6179, Molecular Devices) and a 515- to 575-nm acceptor emission filter (#0200-6203, Molecular Devices) BRET ratios were extracted from ScreenWorks software (Molecular Devices) and represent the ratio between the acceptor emission of […]2 or mNG (G protein or β-arrestin recruitment, respectively) and NLuc donor emission. The basal BRET ratio was defined as the average BRET ratio of the five consecutive readings preceding ligand addition. Changes in BRET values post ligand administration (ΔBRET) were calculated for each well as a percentage difference to the previously defined basal BRET ratio. Average ΔBRET values were baseline corrected by subtracting the average negative control BRET ratio (unstimulated condition). […] AUCs were normalized to the positive control (stimulated condition); whereafter, dose-response curves were fitted to log (inhibitor) vs response (three parameters) in GraphPad 10.2.0 (GraphPad Software). […] Calculation 1: calculation of the BRET signal. • 1. […] NC correctedΔBRET=Δ[…]. • 4. a. Neg AUC of NC correctedΔBRET=Gα activation read out. b. Pos AUC of NC correctedΔBRET=β-arrestin recruitment.
# [5] = target: T1, CXCR2; assay: Bias analysis (bias plot, bias index) of β-arrestin1 recruitment inhibition versus Gαi1 activation inhibition, navarixin as reference; format: cell-based; settings: all ELR+ chemokines; navarixin as reference antagonist
# Procedure: For signaling bias calculations, constraints were set to bottom values equal to zero. The calculated top values generated by nonlinear fit log (inhibitor) vs response (three parameters) in GraphPad 10.2.1 were taken as Imax. […] The bias index values were calculated, as is shown in calculation 2. Briefly, log(Imax/IC50) was calculated. […] Finally, the bias index was calculated by subtracting the ∆log (Imax/IC50) of the tested compound from the stated reference pathway from that of the pathway of interest. […] The statistical significance of H1 was evaluated using a one-sample T-test with Benjamini-Hochberg correction applied for multiple comparisons, whereas H2 was assessed using a one-way ANOVA followed by Tukey’s test.
# Bias index=∆LogImax/IC50P1:β−arr1−∆LogImax/IC50P2:Gai1 .
# Bias plots are equimolar comparisons between the two pathways of interest.
molecule,measurement,setting,value
"CXCL3: recombinant human ELR+ chemokine, CXCR2 ligand (PeproTech)",G-protein EC80,[1],0.00892 µM
same,β-arrestin EC80,[2],0.1001 µM
"CXCL5: recombinant human ELR+ chemokine, CXCR2 ligand (PeproTech)",G-protein EC80,[1],0.00516 µM
same,β-arrestin EC80,[2],0.08619 µM
"CXCL2: recombinant human ELR+ chemokine, CXCR2 ligand (PeproTech)",G-protein EC80,[1],0.00215 µM
same,β-arrestin EC80,[2],0.1478 µM
"CXCL1: recombinant human ELR+ chemokine, CXCR2 ligand (PeproTech)",G-protein EC80,[1],0.0032 µM
same,β-arrestin EC80,[2],0.05918 µM
"CXCL6: recombinant human ELR+ chemokine, CXCR2 ligand (PeproTech)",G-protein EC80,[1],0.01712 µM
same,β-arrestin EC80,[2],0.168 µM
"CXCL8: recombinant human ELR+ chemokine, CXCR2 ligand (PeproTech)",G-protein EC80,[1],0.00416 µM
same,β-arrestin EC80,[2],0.01729 µM
"C[C@H](CO)Nc1nc(SCc2cccc(Cl)c2F)nc2[nH]c(=O)sc12 [AZ10397767, reference compound]",Imax Gαi1 (maximum observed inhibitory effect),[3]; CXCL1 at EC80,100%
same,Imax Gαi1 (maximum observed inhibitory effect),[3]; CXCL2 at EC80,100%
same,Imax Gαi1 (maximum observed inhibitory effect),[3]; CXCL3 at EC80,98.8%
same,Imax Gαi1 (maximum observed inhibitory effect),[3]; CXCL5 at EC80,95.7%
same,Imax Gαi1 (maximum observed inhibitory effect),[3]; CXCL6 at EC80,100%
same,Imax Gαi1 (maximum observed inhibitory effect),[3]; CXCL7 at EC80,100%
same,Imax Gαi1 (maximum observed inhibitory effect),[3]; CXCL8 at EC80,98.5%
same,Imax βarr1 (maximum observed inhibitory effect),[4]; CXCL1 at EC80,100%
same,Imax βarr1 (maximum observed inhibitory effect),[4]; CXCL2 at EC80,100%
same,Imax βarr1 (maximum observed inhibitory effect),[4]; CXCL3 at EC80,100%
same,Imax βarr1 (maximum observed inhibitory effect),[4]; CXCL5 at EC80,100%
same,Imax βarr1 (maximum observed inhibitory effect),[4]; CXCL6 at EC80,100%
same,Imax βarr1 (maximum observed inhibitory effect),[4]; CXCL7 at EC80,100%
same,Imax βarr1 (maximum observed inhibitory effect),[4]; CXCL8 at EC80,100%
same,"bias profile (bias plot), β-arrestin1 recruitment inhibition vs Gαi1 activation inhibition",[5],bias toward the inhibition of β-arrestin1 recruitment
"CXCL7: recombinant human ELR+ chemokine, CXCR2 ligand (PeproTech) (protein, UniProt P02775 59-128, looked up, Neutrophil-activating peptide 2) Neutrophil-activating peptide …: AELRCMCIKTTSGIHPKNIQSLEVIGKGTHCNQVEVIATLKDGRKICLDPDAPRIKKIVQKKLAGDESAD",G-protein EC80,[1],0.00409 µM
same,β-arrestin EC80,[2],0.1007 µM
